Reference: patent US20240150321A1, “PYRAZOLYLSULFONAMIDE COMPOUNDS AND THEIR USE IN THERAPY” (HOTSPOT THERAPEUTICS, INC., priority 2022, published 2024)
Where two headings read alike, the source gives them in different places.

Tests used:
[1] = system: NF-kB reporter in Jurkat cells; experiment: NF-kB reporter assay in Jurkat cells stimulated with aCD3/aCD28/PMA; assay type: cell-based; settings: Jurkat cells, 1 hr compound pre-incubation, aCD3/aCD28/PMA stimulation 4 hr, One-Glo readout, read-out: NF-kB Reporter Assay IC50
In short: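 Jurkat cells (25,000/well, serum-free RPMI) were pre-incubated 1 h at 37° C with serially diluted compound, then stimulated 4 h with aCD3/aCD28/PMA at final […]. NF-kB reporter activity was read by One-Glo luminescence; IC50 values reported.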

Avi-tagged FL MALT-1 = Avi-tagged FL MALT-1 (Homo sapiens (Human), UniProt Q9UDY8); experiment: MALT-1 Fluorogenic Peptide Cleavage Assay (MALT1 inhibition assay); assay type: biochemical; settings: Ac-LRSR-AMC peptide substrate, 30 min pre-incubation, 90 min reaction at room temperature
Avi-tagged FL MALT-1, sequence (Q9UDY8 whole entry): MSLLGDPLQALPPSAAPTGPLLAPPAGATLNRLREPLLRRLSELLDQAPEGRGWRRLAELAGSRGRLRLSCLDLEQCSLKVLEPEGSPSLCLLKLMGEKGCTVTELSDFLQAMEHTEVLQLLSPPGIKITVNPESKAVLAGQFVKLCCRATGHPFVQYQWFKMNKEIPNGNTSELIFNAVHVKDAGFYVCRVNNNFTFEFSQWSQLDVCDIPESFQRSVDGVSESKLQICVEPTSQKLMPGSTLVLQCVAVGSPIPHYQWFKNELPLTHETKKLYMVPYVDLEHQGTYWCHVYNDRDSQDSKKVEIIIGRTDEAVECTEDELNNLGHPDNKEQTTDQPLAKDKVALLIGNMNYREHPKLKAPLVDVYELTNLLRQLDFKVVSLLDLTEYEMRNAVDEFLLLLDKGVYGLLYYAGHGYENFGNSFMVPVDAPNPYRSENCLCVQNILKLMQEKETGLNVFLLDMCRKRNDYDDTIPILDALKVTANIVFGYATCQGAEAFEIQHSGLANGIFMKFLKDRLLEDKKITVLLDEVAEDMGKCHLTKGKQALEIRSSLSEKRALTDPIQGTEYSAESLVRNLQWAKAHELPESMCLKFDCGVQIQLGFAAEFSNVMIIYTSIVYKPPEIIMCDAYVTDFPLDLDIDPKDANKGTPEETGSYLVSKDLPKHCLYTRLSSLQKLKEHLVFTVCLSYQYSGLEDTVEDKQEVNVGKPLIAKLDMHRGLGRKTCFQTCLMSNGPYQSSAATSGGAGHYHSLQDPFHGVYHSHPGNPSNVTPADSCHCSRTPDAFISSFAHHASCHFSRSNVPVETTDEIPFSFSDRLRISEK
In short: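 Full-length Avi-tagged human MALT-1 (40 nM working stock) pre-incubated 30 min at RT with compound in 25 mM HEPES pH 6.89, 660 mM sodium citrate, 1 mM TCEP, […], 0.05% CHAPS, 2% DMSO. Ac-LRSR-AMC added at Km (50 μM working stock) or 10×Km (280 μM working stock); 90 min at RT, AMC fluorescence (ex 342/em 441 nm), IC50 from % inhibition curves.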

SMILES | IC50 ([1]; Homo sapiens) | IC50 (Avi-tagged FL MALT-1) | IC50 [1]
COc1cnc(C(F)(F)F)cc1-n1cc(S(=O)(=O)Nc2c(OC)ccc3cnn(C)c23)cn1 [Compound I-90, N-(6-Methoxy-1-Methyl-1H-Indazol-7-yl)-1-(5-Methoxy-2-(Trifluoromethyl)Pyridin-4-yl)-1H-Pyrazole-4-Sulfonamide] | < 0.4 µM | ≤ 0.4 µM | 
COc1ccc2cnn(C)c2c1NS(=O)(=O)c1cnn(-c2cc(N3CCC4(CC4)C3)ccn2)c1 [Compound I-433] | < 0.4 µM | > 2.5 µM | 
Cc1n[nH]c2cccc(N(C)S(=O)(=O)c3cnn(-c4ccnc(C(F)(F)F)c4)c3)c12 [Compound I-64, N-Methyl-N-(3-Methyl-1H-Indazol-4-yl)-1-(2-(Trifluoromethyl)Pyridin-4-yl)-1H-Pyrazole-4-Sulfonamide] | > 2.5 µM | 1 to 2.5 µM | 
Cn1ncc2cccc(NS(=O)(=O)c3cnn(-c4cc(C5(O)COC5)ccn4)c3)c21 [Compound I-101, 1-(4-(3-hydroxyoxetan-3-yl)pyridin-2-yl)-N-(1-methyl-1H-indazol-7-yl)-1H-pyrazole-4-sulfonamide] | < 0.4 µM | > 2.5 µM | 
COc1ncc2cnn(C)c2c1NS(=O)(=O)c1cnn(-c2cc(C(C)O)ccn2)c1 (single isomer, unassigned) [Compound I-292, 1-(4-(1-hydroxyethyl)pyridin-2-yl)-N-(6-methoxy-1-methyl-1H-pyrazolo[4,3-c]pyridin-7-yl)-1H-pyrazole-4-sulfonamide] | 0.4 to 1 µM | 0.4 to 1 µM | 
CN1CC[C@H](n2cc(S(=O)(=O)Nc3cccc4cnn(C)c34)cn2)CC1=O [Compound I-415] | > 2.5 µM | > 2.5 µM | 
Cn1ncc2cccc(NS(=O)(=O)c3cnn(-c4cc(N5CCCCC5)ccn4)c3)c21 [Compound I-250, N-(1-methyl-1H-indazol-7-yl)-1-(4-(piperidin-1-yl)pyridin-2-yl)-1H-pyrazole-4-sulfonamide] | < 0.4 µM | > 2.5 µM | 
O=S(=O)(Nc1cccc2cnn(C(F)F)c12)c1cnn(-c2cc(C(F)(F)F)ccn2)c1 [Compound I-239] | > 2.5 µM | > 2.5 µM | 
COc1ccc2cnn(C)c2c1NS(=O)(=O)c1cnn(-c2cc(N3CC(C)C3)ccn2)c1 [Compound I-369] | < 0.4 µM | > 2.5 µM | 
Cn1ncc2cccc(NS(=O)(=O)c3cnn(-c4cc(N5C(=O)OCC5(C)C)ccn4)c3)c21 [Compound I-321] | < 0.4 µM | > 2.5 µM | 
[2H]C([2H])([2H])n1ncc2cnc(OC)c(N(C)S(=O)(=O)c3cnn(-c4cc(C(F)(F)F)ccn4)c3)c21 [Compound I-354, N-(6-methoxy-1-(methyl-d3)-1H-pyrazolo[4,3-c]pyridin-7-yl)-N-methyl-1-(4-(trifluoromethyl)pyridin-2-yl)-1H-pyrazole-4-sulfonamide] | < 0.4 µM | ≤ 0.4 µM | 
Cn1ncc2ccc(OC(F)(F)F)c(N(S(=O)(=O)c3cnn(-c4cc(C(F)(F)F)ccn4)c3)S(=O)(=O)c3cnn(-c4cc(C(F)(F)F)ccn4)c3)c21 [Compound I-337, N-[1-methyl-6-(trifluoromethoxy)indazol-7-yl]-1-[4-(trifluoromethyl)pyridin-2-yl]-N-{1-[4-(trifluoromethyl)pyridin-2-yl]pyrazol-4-ylsulfonyl}pyrazole-4-sulfonamide] | > 2.5 µM | > 2.5 µM | 
COc1cc(NS(=O)(=O)c2cnn(-c3ccnc(C(F)(F)F)c3)c2)c2c(cnn2C)c1 [Compound I-58, N-(5-Methoxy-1-Methyl-1H-Indazol-7-yl)-1-(2-(Trifluoromethyl)Pyridin-4-yl)-1H-Pyrazole-4-Sulfonamide] | > 2.5 µM | > 2.5 µM | 
CCC(CC)(OC)c1ccnc(-n2cc(S(=O)(=O)Nc3cccc4cnn(C)c34)cn2)c1 [Compound I-296] | < 0.4 µM | > 2.5 µM | 
Cc1n[nH]c2cccc(NS(=O)(=O)c3cnn(-c4cc(C(C)(C)O)ccn4)c3)c12 [Compound I-245] |  | > 2.5 µM | < 0.4 µM
COC1CC(c2ccnc(-n3cc(S(=O)(=O)Nc4cccc5cnn(C)c45)cn3)c2)C1 (centres unmarked) [Compound I-399, 1-(4-(3-methoxycyclobutyl)pyridin-2-yl)-N-(1-methyl-1H-indazol-7-yl)-1H-pyrazole-4-sulfonamide] | < 0.4 µM | > 2.5 µM | 
CCc1ccc2cnn(C)c2c1NS(=O)(=O)c1cnn(-c2cc(OC(F)(F)F)ccn2)c1 [Compound I-43, N-(6-Ethyl-1-Methyl-1H-Indazol-7-yl)-1-(4-(Trifluoromethoxy) Pyridin-2-yl)-1H-Pyrazole-4-Sulfonamide] | > 2.5 µM | > 2.5 µM | 

Second part, the compound after the results:

IC50 ([1]; Homo sapiens) | IC50 (Avi-tagged FL MALT-1) | IC50 [1] | SMILES
< 0.4 µM | > 2.5 µM |  | Cn1ncc2cccc(NS(=O)(=O)c3cnn(-c4cc(C(C)(C)F)ccn4)c3)c21 [Compound I-113, 1-(4-(2-fluoropropan-2-yl)pyridin-2-yl)-N-(1-methyl-1H-indazol-7-yl)-1H-pyrazole-4-sulfonamide]
 | > 2.5 µM | < 0.4 µM | Cn1ncc2cccc(NS(=O)(=O)c3cnn(-c4cc(C5(F)CC(F)C5)ccn4)c3)c21 (centres unmarked) [Compound I-376, 1-(4-(1,3-difluorocyclobutyl)pyridin-2-yl)-N-(1-methyl-1H-indazol-7-yl)-1H-pyrazole-4-sulfonamide]
< 0.4 µM | > 2.5 µM |  | Cc1n[nH]c2cccc(NS(=O)(=O)c3cnn(-c4cc(C5(O)CCCC5)ccn4)c3)c12 [Compound I-246, 1-[4-(1-hydroxycyclopentyl)pyridin-2-yl]-N-(3-methyl-1H-indazol-4-yl)pyrazole-4-sulfonamide]
> 2.5 µM | 0.4 to 1 µM |  | COc1ccc2cn(C)nc2c1NS(=O)(=O)c1cnn(-c2ccnc(C(F)(F)F)c2)c1 [Compound I-50, N-(6-Methoxy-2-Methyl-2H-Indazol-7-yl)-1-(2-(Trifluoromethyl)Pyridin-4-yl)-1H-Pyrazole-4-Sulfonamide]
< 0.4 µM | ≤ 0.4 µM |  | CCc1ccc2cnn(C)c2c1NS(=O)(=O)c1cnn(-c2cncc(C(F)(F)F)c2)c1 [Compound I-3, N-(6-Ethyl-1-Methyl-1H-Indazol-7-yl)-1-(5-(Trifluoromethyl) Pyridin-3-yl)-1H-Pyrazole-4-Sulfonamide]
< 0.4 µM | > 2.5 µM |  | COc1ncc2cnn(C)c2c1NS(=O)(=O)c1cnn(-c2cc(N3CC[C@H](C)C3)ccn2)c1 [Compound I-419]
< 0.4 µM | > 2.5 µM |  | Cn1ncc2cccc(NS(=O)(=O)c3cnn(-c4cc(C5(F)CCOCC5)ccn4)c3)c21 [Compound I-130, 1-(4-(4-fluorotetrahydro-2H-pyran-4-yl)pyridin-2-yl)-N-(1-methyl-1H-indazol-7-yl)-1H-pyrazole-4-sulfonamide]
0.4 to 1 µM | ≤ 0.4 µM |  | CCc1ccc2[nH]nc(C)c2c1N(C)S(=O)(=O)c1cnn(-c2ccnc(C(F)(F)F)c2)c1 [Compound I-62, N-(5-Ethyl-3-Methyl-1H-Indazol-4-yl)-N-Methyl-1-(2-(Trifluoromethyl)Pyridin-4-yl)-1H-Pyrazole-4-Sulfonamide]
< 0.4 µM | ≤ 0.4 µM |  | COc1ccc2cnn(C)c2c1NS(=O)(=O)c1cnn(-c2cc(C3CC3)ccn2)c1 [Compound I-57, 1-(4-Cyclopropylpyridin-2-yl)-N-(6-Methoxy-1-Methyl-1H-Indazol-7-yl)-1H-Pyrazole-4-Sulfonamide]
1 to 2.5 µM | > 2.5 µM |  | Cn1ncc2cccc(NS(=O)(=O)c3cnn(-c4cnn5c4OCCC5)c3)c21 [Compound I-465, N-(1-methylindazol-7-yl)-1-{5H,6H,7H-pyrazolo[3,2-b][1,3]oxazin-3-yl}pyrazole-4-sulfonamide]
0.4 to 1 µM | ≤ 0.4 µM |  | Cn1ncc2ccc(C3CC3)c(NS(=O)(=O)c3cnn(-c4cncc(C(F)(F)F)c4)c3)c21 [Compound I-18]
< 0.4 µM | ≤ 0.4 µM |  | COc1ccc2cnn(C)c2c1NS(=O)(=O)c1cnn(-c2ccnc(C3CC3)c2)c1 [Compound I-77, 1-(2-Cyclopropylpyridin-4-yl)-N-(6-Methoxy-1-Methyl-1H-Indazol-7-yl)-1H-Pyrazole-4-Sulfonamide]
< 0.4 µM | > 2.5 µM |  | Cn1ncc2cccc(NS(=O)(=O)c3cnn(-c4cc(N5CC(C#N)C5)ccn4)c3)c21 [Compound I-460]
 | > 2.5 µM | < 0.4 µM | Cn1ncc2cccc(NS(=O)(=O)c3cnn(-c4cc(C5(F)CC(F)C5)ccn4)c3)c21 (centres unmarked) [Compound I-366, 1-(4-(1,3-difluorocyclobutyl)pyridin-2-yl)-N-(1-methyl-1H-indazol-7-yl)-1H-pyrazole-4-sulfonamide]
< 0.4 µM | > 2.5 µM |  | C[C@@H]1CN(c2ccnc(-n3cc(S(=O)(=O)Nc4cccc5cnn(C)c45)cn3)c2)C(=O)O1 [Compound I-320]
< 0.4 µM | 1 to 2.5 µM |  | CC[C@@](C)(O)c1ccnc(-n2cc(S(=O)(=O)Nc3c(OC)ccc4cnn(C)c34)cn2)c1 [Compound I-316]
0.4 to 1 µM | 0.4 to 1 µM |  | COc1ncc2cnn(C)c2c1NS(=O)(=O)c1cnn(-c2cc(C(C)(C)O)ccn2)c1 [Compound I-260, 1-(4-(2-hydroxypropan-2-yl)pyridin-2-yl)-N-(6-methoxy-1-methyl-1H-pyrazolo[4,3-c]pyridin-7-yl)-1H-pyrazole-4-sulfonamide]
